How the values were obtained:
U251 = assay: NCI in vitro cancer screen, CNS Cancer; assay type: cell-based, human; conditions: U251
HCT-116 = assay: NCI in vitro cancer screen, Colon Cancer; assay type: cell-based, human; conditions: HCT-116
HT29 = assay: NCI in vitro cancer screen, Colon Cancer; assay type: cell-based, human; conditions: HT29
COLO 205 = assay: NCI in vitro cancer screen, Colon Cancer; assay type: cell-based, human; conditions: COLO 205
SW-620 = assay: NCI in vitro cancer screen, Colon Cancer; assay type: cell-based, human; conditions: SW-620
SF-295 = assay: NCI in vitro cancer screen, CNS Cancer; assay type: cell-based, human; conditions: SF-295
UACC-257 = assay: NCI in vitro cancer screen, Melanoma; assay type: cell-based, human; conditions: UACC-257
[1] = tested on: MDA-MB-231 (MDA-MB-231/ATCC); assay: NCI in vitro cancer screen, Breast Cancer; assay type: cell-based, human; conditions: MDA-MB-231
MOLT-4 = assay: NCI in vitro cancer screen, Leukemia; assay type: cell-based, human; conditions: MOLT-4
DU-145 = assay: NCI in vitro cancer screen, Prostate Cancer; assay type: cell-based, human; conditions: DU-145
SNB-19 = assay: NCI in vitro cancer screen, CNS Cancer; assay type: cell-based, human; conditions: SNB-19
K-562 = assay: NCI in vitro cancer screen, Leukemia; assay type: cell-based, human; conditions: K-562
OVCAR-4 = assay: NCI in vitro cancer screen, Ovarian Cancer; assay type: cell-based, human; conditions: OVCAR-4
A549/ATCC = assay: NCI in vitro cancer screen, Non-Small Cell Lung Cancer; assay type: cell-based, human
OVCAR-5 = assay: NCI in vitro cancer screen, Ovarian Cancer; assay type: cell-based, human; conditions: OVCAR-5
MALME-3M = assay: NCI in vitro cancer screen, Melanoma; assay type: cell-based, human
KM12 = assay: NCI in vitro cancer screen, Colon Cancer; assay type: cell-based, human; conditions: KM12
NCI-H226 = assay: NCI in vitro cancer screen, Non-Small Cell Lung Cancer; assay type: cell-based, human; conditions: NCI-H226
HL-60 (TB) = assay: NCI in vitro cancer screen, Leukemia; assay type: cell-based, human; conditions: HL-60 (TB)
IGROV1 = assay: NCI in vitro cancer screen, Ovarian Cancer; assay type: cell-based, human; conditions: IGROV1
MCF7 = assay: NCI in vitro cancer screen, Breast Cancer; assay type: cell-based, human; conditions: MCF7
OVCAR-3 = assay: NCI in vitro cancer screen, Ovarian Cancer; assay type: cell-based, human; conditions: OVCAR-3
ACHN = assay: NCI in vitro cancer screen, Renal Cancer; assay type: cell-based, human
ADR-RES (NCI/ADR-RES) = assay: NCI in vitro cancer screen, Ovarian Cancer; assay type: cell-based, human
NCI-H522 = assay: NCI in vitro cancer screen, Non-Small Cell Lung Cancer; assay type: cell-based, human; conditions: NCI-H522
SF-539 = assay: NCI in vitro cancer screen, CNS Cancer; assay type: cell-based; conditions: SF-539
UO-31 = assay: NCI in vitro cancer screen, Renal Cancer; assay type: cell-based, human; conditions: UO-31
HOP-92 = assay: NCI in vitro cancer screen, Non-Small Cell Lung Cancer; assay type: cell-based, human; conditions: HOP-92
NCI-H322M = assay: as above; assay type: cell-based, human
SNB-75 = assay: NCI in vitro cancer screen, CNS Cancer; assay type: cell-based, human; conditions: SNB-75
CAKI-1 = assay: NCI in vitro cancer screen, Renal Cancer; assay type: cell-based, human; conditions: CAKI-1
[2] = Homo sapiens, read-out: LC50 (the source's name)

CC(C)=CCc1c(O)cc(/C=C/c2ccc(O)cc2)c(CC=C(C)C)c1O [USYDS6, (E)-2,4-di(3-methyl-2-buten-1-yl)-3,4′,5-trihydroxystilbene]
GI50 (U251; Homo sapiens, U-251): 2.33 µM | CC50 (U251; Homo sapiens, U-251, read-out: LC50 (the source's name)): 16.7 µM | TGI (U251): 5.31 µM | TGI (HCT-116): 3.78 µM | GI50 (HCT-116; Homo sapiens): 1.89 µM | TGI (HT29): 17.6 µM | GI50 (HT29; Homo sapiens, HT-29): 5.44 µM | CC50 (HT29; Homo sapiens, HT-29, read-out: LC50 (the source's name)): 48.3 µM | TGI (COLO 205): 30.2 µM | GI50 (COLO 205; Homo sapiens): 16 µM | CC50 (COLO 205; [2]): 57.2 µM | GI50 (SW-620; Homo sapiens): 1.84 µM | CC50 (SW-620; [2]): 6.82 µM | TGI (SW-620): 3.54 µM | GI50 (SF-295; Homo sapiens): 6.78 µM | CC50 (SF-295; [2]): 53.2 µM | TGI (SF-295): 20.8 µM | GI50 (UACC-257; Homo sapiens): 3.49 µM | CC50 (UACC-257; [2]): 39.8 µM | TGI (UACC-257): 14.4 µM | GI50 ([1]; Homo sapiens): 1.72 µM | CC50 [1, 2]: 17.2 µM | TGI [1]: 4.54 µM | GI50 (MOLT-4; Homo sapiens): 1.59 µM | CC50 (MOLT-4; [2]): 16.8 µM | TGI (MOLT-4): 4.27 µM | TGI (DU-145): 12.9 µM | GI50 (DU-145; Homo sapiens): 3.47 µM | CC50 (DU-145; [2]): 40.1 µM | GI50 (SNB-19; Homo sapiens): 6.38 µM | CC50 (SNB-19; [2]): 52.7 µM | TGI (SNB-19): 20.6 µM | GI50 (K-562; Homo sapiens, K562): 1.46 µM | CC50 (K-562; Homo sapiens, K562, read-out: LC50 (the source's name)): 22.6 µM | TGI (K-562): 4.13 µM | GI50 (OVCAR-4; Homo sapiens): 4.4 µM | CC50 (OVCAR-4; [2]): 43.5 µM | TGI (OVCAR-4): 16.1 µM | TGI (A549/ATCC): 8.42 µM | GI50 (A549/ATCC; Homo sapiens): 2.69 µM | CC50 (A549/ATCC; [2]): 33.7 µM | GI50 (OVCAR-5; Homo sapiens): 5.86 µM | CC50 (OVCAR-5; [2]): 53.3 µM | TGI (OVCAR-5): 20.0 µM | GI50 (MALME-3M; Homo sapiens, Malme-3M): 2.8 µM | CC50 (MALME-3M; Homo sapiens, Malme-3M, read-out: LC50 (the source's name)): 37.1 µM | TGI (MALME-3M; MALME-3M): 8.56 µM | GI50 (KM12; Homo sapiens): 2.21 µM | CC50 (KM12; [2]): 8.64 µM | TGI (KM12): 4.37 µM | GI50 (NCI-H226; Homo sapiens): 1.47 µM | TGI (NCI-H226): 30.1 µM | TGI (HL-60 (TB)): 4.83 µM | GI50 (HL-60 (TB); Homo sapiens): 2.07 µM | CC50 (HL-60 (TB); [2]): 15.4 µM | GI50 (IGROV1; Homo sapiens, IGROV-1): 5.23 µM | CC50 (IGROV1; Homo sapiens, IGROV-1, read-out: LC50 (the source's name)): 54.1 µM | TGI (IGROV1): 17.7 µM | GI50 (MCF7; Homo sapiens): 4.02 µM | CC50 (MCF7; [2]): 60.5 µM | TGI (MCF7): 18.0 µM | GI50 (OVCAR-3; Homo sapiens): 2.1 µM | CC50 (OVCAR-3; [2]): 8.85 µM | TGI (OVCAR-3): 4.31 µM | TGI (ACHN): 14.6 µM | GI50 (ACHN; Homo sapiens): 3.94 µM | CC50 (ACHN; [2]): 50.4 µM | TGI (ADR-RES (NCI/ADR-RES); ADR-RES): 15.2 µM | GI50 (ADR-RES (NCI/ADR-RES); Homo sapiens, NCI/ADR-RES): 3.46 µM | CC50 (ADR-RES (NCI/ADR-RES); Homo sapiens, NCI/ADR-RES, read-out: LC50 (the source's name)): 51.2 µM | GI50 (NCI-H522; Homo sapiens): 2.18 µM | CC50 (NCI-H522; [2]): 17.8 µM | TGI (NCI-H522): 5.15 µM | GI50 (SF-539; Homo sapiens): 4.48 µM | CC50 (SF-539; [2]): 57.1 µM | TGI (SF-539): 17.6 µM | GI50 (UO-31; Homo sapiens): 2.51 µM | CC50 (UO-31; [2]): 33.5 µM | TGI (UO-31): 7.50 µM | TGI (HOP-92): 4.67 µM | GI50 (HOP-92; Homo sapiens): 1.86 µM | CC50 (HOP-92; [2]): 14.5 µM | TGI (NCI-H322M): 25.5 µM | GI50 (NCI-H322M; Homo sapiens): 1.16 µM | GI50 (SNB-75; Homo sapiens): 6.67 µM | CC50 (SNB-75; [2]): 54 µM | TGI (SNB-75): 21.4 µM | TGI (CAKI-1): 22.6 µM | GI50 (CAKI-1; Homo sapiens): 8.37 µM | CC50 (CAKI-1; [2]): 55.7 µM
